# In PubChem BioAssay (NCI):
#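 Method: 48-hour compound exposure of cells in 96-well plates, five concentrations, linear interpolation of endpoints. GI50: concentration for 50% inhibition of growth. TGI marks complete inhibition of growth.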
# Legend:
# Assay in all cases: NCI-60 cell line screen, 48 h
# [1] = test system: RXF 393 renal
# [2] = test system: SK-MEL-5 melanoma
# [3] = test system: RPMI-8226 leukemia
# [4] = test system: UO-31 renal
# [5] = test system: SK-MEL-2 melanoma
# [6] = test system: TK-10 renal
# [7] = test system: U251 CNS
# [8] = test system: LOX IMVI melanoma
# [9] = test system: SK-MEL-28 melanoma
# [10] = test system: SF-295 CNS
# [11] = test system: HOP-92 NSCLC
# [12] = test system: 786-0 renal
# [13] = test system: K-562 leukemia
# [14] = test system: M14 melanoma
# [15] = test system: SF-539 CNS
# [16] = test system: MALME-3M melanoma
# [17] = test system: UACC-257 melanoma
# [18] = test system: T-47D breast
# [19] = test system: MDA-MB-231 breast
# [20] = test system: OVCAR-5 ovarian
# [21] = test system: HCC-2998 colon
# [22] = test system: BT-549 breast
# [23] = test system: PC-3 prostate
# [24] = test system: NCI-H460 lung
# [25] = test system: NCI-H23 lung
# [26] = test system: SN12C renal
# [27] = test system: UACC-62 melanoma
# [28] = test system: HCT-15 colon
# [29] = test system: EKVX NSCLC
# [30] = test system: SNB-19 CNS
# [31] = test system: SNB-75 CNS
# [32] = test system: IGROV1 ovarian
# [33] = test system: OVCAR-4 ovarian
# [34] = test system: KM12 colon
# [35] = test system: OVCAR-8 ovarian
# [36] = test system: NCI/ADR-RES ovarian
# [37] = test system: SF-268 CNS
# [38] = test system: OVCAR-3 ovarian
# [39] = test system: MOLT-4 leukemia
# [40] = test system: ACHN renal
# [41] = test system: CAKI-1 renal
# [42] = test system: A498 renal
# [43] = test system: HT29 colon
# [44] = test system: NCI-H226 lung
# [45] = test system: SW-620 colon
# [46] = test system: HS 578T breast
# [47] = test system: COLO 205 colon
# [48] = test system: NCI-H522 lung
# [49] = test system: DU-145 prostate
# [50] = test system: MCF7 breast
# [51] = test system: HCT-116 colon
# [52] = test system: SK-OV-3 ovarian
# [53] = test system: HL-60(TB) leukemia
# [54] = test system: MDA-MB-435
# [55] = test system: A549 NSCLC
# [56] = test system: CCRF-CEM leukemia
# [57] = test system: HOP-62 NSCLC
structure (smiles),measurement,setting,value
O=C(Nc1ccc2cc3ccc(NC(=O)N4CCCCCC4)cc3nc2c1)N1CCCCCC1,GI50,[1],0.219 µM
same,TGI,[1],0.505 µM
same,GI50,[2],1.48 µM
same,TGI,[2],2.81 µM
same,GI50,[3],0.315 µM
same,TGI,[3],1.02 µM
same,GI50,[4],1.66 µM
same,TGI,[4],3.04 µM
same,GI50,[5],1.62 µM
same,TGI,[5],3.14 µM
same,GI50,[6],1.92 µM
same,TGI,[6],3.46 µM
same,GI50,[7],0.534 µM
same,TGI,[7],1.81 µM
same,GI50,[8],1.42 µM
same,TGI,[8],2.75 µM
same,GI50,[9],1.32 µM
same,TGI,[9],2.67 µM
same,GI50,[10],0.783 µM
same,TGI,[10],2.12 µM
same,GI50,[11],1.57 µM
same,TGI,[11],3.28 µM
same,GI50,[12],0.344 µM
same,TGI,[12],1.28 µM
same,GI50,[13],0.35 µM
same,TGI,[13],1.23 µM
same,GI50,[14],1.32 µM
same,TGI,[14],2.78 µM
same,GI50,[15],0.841 µM
same,TGI,[15],2.09 µM
same,GI50,[16],1.13 µM
same,TGI,[16],2.53 µM
same,GI50,[17],1.81 µM
same,TGI,[17],3.36 µM
CC1(C)CC(=O)C(CC2C(=O)c3ccccc3C2=O)C(=O)C1C(=O)C(=O)Nc1cccc2ccc(O)cc12 (configuration not stated),TGI,[18],> 100 µM
same,TGI,[19],> 100 µM
same,TGI,[20],> 100 µM
same,TGI,[21],> 100 µM
same,TGI,[22],> 100 µM
same,TGI,[23],> 100 µM
same,TGI,[24],> 100 µM
same,TGI,[25],> 100 µM
same,TGI,[26],> 100 µM
same,TGI,[27],> 100 µM
same,TGI,[28],> 100 µM
same,TGI,[29],> 100 µM
same,TGI,[30],> 100 µM
same,TGI,[2],> 100 µM
same,TGI,[31],> 100 µM
same,TGI,[32],> 100 µM
same,TGI,[3],> 100 µM
same,TGI,[4],> 100 µM
same,TGI,[33],> 100 µM
same,TGI,[5],> 100 µM
same,TGI,[6],> 100 µM
same,TGI,[7],> 100 µM
same,TGI,[8],> 100 µM
same,TGI,[9],> 100 µM
same,TGI,[10],> 100 µM
same,TGI,[34],> 100 µM
same,TGI,[35],> 100 µM
same,TGI,[36],> 100 µM
same,TGI,[11],> 100 µM
same,TGI,[37],> 100 µM
same,TGI,[38],> 100 µM
same,TGI,[39],> 100 µM
same,TGI,[40],> 100 µM
same,TGI,[12],> 100 µM
same,TGI,[41],> 100 µM
same,TGI,[13],> 100 µM
same,TGI,[42],69.8 µM
same,TGI,[43],> 100 µM
same,TGI,[44],> 100 µM
same,TGI,[45],> 100 µM
same,TGI,[46],> 100 µM
same,TGI,[47],> 100 µM
same,TGI,[48],> 100 µM
same,TGI,[14],> 100 µM
same,TGI,[49],> 100 µM
same,TGI,[50],> 100 µM
same,TGI,[51],> 100 µM
same,TGI,[52],> 100 µM
same,TGI,[53],> 100 µM
same,TGI,[54],> 100 µM
same,TGI,[55],> 100 µM
same,TGI,[15],> 100 µM
same,TGI,[16],> 100 µM
same,TGI,[17],> 100 µM
same,TGI,[56],> 100 µM
CCN(CC)CCNC(=O)c1cc(Cl)c(N)cc1OC,GI50,[22],82.3 µM
same,GI50,[24],23.5 µM
same,TGI,[24],45.8 µM
same,GI50,[2],99.6 µM
same,GI50,[31],50.2 µM
same,GI50,[4],99.1 µM
same,GI50,[10],25.3 µM
same,TGI,[10],44.2 µM
same,GI50,[35],28.4 µM
same,TGI,[35],46.2 µM
same,GI50,[13],56.5 µM
same,GI50,[42],11.1 µM
same,TGI,[42],40.1 µM
same,GI50,[43],20.8 µM
same,TGI,[43],38.7 µM
same,GI50,[17],13.9 µM
same,TGI,[17],19.4 µM
CCc1cccc(C(C)C)c1NC1=C([n+]2ccc(C)cc2)C(=O)c2ccccc2C1=O,TGI,[18],2.24 µM
same,TGI,[19],> 34.7 µM
same,TGI,[20],23.2 µM
same,TGI,[21],20.9 µM
same,TGI,[1],4.28 µM
same,TGI,[23],8.91 µM
same,TGI,[24],4.09 µM
same,TGI,[25],> 100 µM
same,TGI,[26],8.35 µM
same,TGI,[27],4.22 µM
same,TGI,[28],13.9 µM
same,TGI,[29],5.16 µM
same,TGI,[30],> 100 µM
same,TGI,[2],4.66 µM
same,TGI,[31],7.32 µM
same,TGI,[32],8.18 µM
same,TGI,[3],2.71 µM
same,TGI,[4],10 µM
same,TGI,[33],10.9 µM
same,TGI,[5],28.9 µM
same,TGI,[6],29.1 µM
same,TGI,[7],12.1 µM
same,TGI,[8],3.39 µM
same,TGI,[9],20.8 µM
same,TGI,[10],18.1 µM
same,TGI,[34],> 43.4 µM
same,TGI,[35],4.79 µM
same,TGI,[36],37.8 µM
same,TGI,[11],7.06 µM
same,TGI,[37],5.8 µM
same,TGI,[38],2.31 µM
same,TGI,[39],9.43 µM
same,TGI,[40],1.68 µM
same,TGI,[12],12.1 µM
same,TGI,[41],5.41 µM
same,TGI,[13],20.3 µM
same,TGI,[42],8.79 µM
same,TGI,[43],7.75 µM
same,TGI,[44],8.76 µM
same,TGI,[45],> 100 µM
same,TGI,[46],> 100 µM
same,TGI,[47],2.57 µM
same,TGI,[48],15.8 µM
same,TGI,[14],3.16 µM
same,TGI,[49],3.92 µM
same,TGI,[50],1.3 µM
same,TGI,[51],> 100 µM
same,TGI,[52],19.7 µM
same,TGI,[53],9.29 µM
same,TGI,[54],3.12 µM
same,TGI,[55],22.5 µM
same,TGI,[15],4.27 µM
same,TGI,[16],6.91 µM
same,TGI,[17],4.45 µM
same,TGI,[57],9.62 µM
same,TGI,[56],4 µM
